# Laboratory results: PubChem BioAssay (NCI)
#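 These data come from cells grown in 96-well plates and exposed to compound for 48 hours at five concentrations. GI50 = concentration required for 50% inhibition of growth. TGI is the concentration that stops growth completely.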
# Legend:
# Assay in all cases: NCI anticancer screen, dose series, 48 h
# SK-MEL-5 melanoma = tested on: SK-MEL-5 melanoma
# DU-145 prostate = tested on: DU-145 prostate
# SR leukemia = tested on: SR leukemia
# SW-620 colon = tested on: SW-620 colon
# LOX IMVI melanoma = tested on: LOX IMVI melanoma
# SNB-19 CNS = tested on: SNB-19 CNS
# MALME-3M melanoma = tested on: MALME-3M melanoma
# HOP-62 NSCLC = tested on: HOP-62 NSCLC
# NCI-H460 lung = tested on: NCI-H460 lung
# A498 renal = tested on: A498 renal
# SN12C renal = tested on: SN12C renal
# OVCAR-5 ovarian = tested on: OVCAR-5 ovarian
# RXF 393 renal = tested on: RXF 393 renal
# OVCAR-8 ovarian = tested on: OVCAR-8 ovarian
# SNB-75 CNS = tested on: SNB-75 CNS
# IGROV1 ovarian = tested on: IGROV1 ovarian
# SK-MEL-28 melanoma = tested on: SK-MEL-28 melanoma
# HCT-15 colon = tested on: HCT-15 colon
# OVCAR-4 ovarian = tested on: OVCAR-4 ovarian
# T-47D breast = tested on: T-47D breast
# KM12 colon = tested on: KM12 colon
# EKVX NSCLC = tested on: EKVX NSCLC
# HCC-2998 colon = tested on: HCC-2998 colon
# 786-0 renal = tested on: 786-0 renal
# K-562 leukemia = tested on: K-562 leukemia
# TK-10 renal = tested on: TK-10 renal
# NCI/ADR-RES ovarian = tested on: NCI/ADR-RES ovarian
# COLO 205 colon = tested on: COLO 205 colon
# HT29 colon = tested on: HT29 colon
# SF-295 CNS = tested on: SF-295 CNS
# BT-549 breast = tested on: BT-549 breast
# SK-OV-3 ovarian = tested on: SK-OV-3 ovarian
# HOP-92 NSCLC = tested on: HOP-92 NSCLC
# M14 melanoma = tested on: M14 melanoma
# NCI-H226 lung = tested on: NCI-H226 lung
# NCI-H522 lung = tested on: NCI-H522 lung
# HCT-116 colon = tested on: HCT-116 colon
# HS 578T breast = tested on: HS 578T breast
# UO-31 renal = tested on: UO-31 renal
# U251 CNS = tested on: U251 CNS
# A549 NSCLC = tested on: A549 NSCLC
# MCF7 breast = tested on: MCF7 breast
# MDA-MB-231 breast = tested on: MDA-MB-231 breast
# CAKI-1 renal = tested on: CAKI-1 renal
# SF-539 CNS = tested on: SF-539 CNS
# MOLT-4 leukemia = tested on: MOLT-4 leukemia
# PC-3 prostate = tested on: PC-3 prostate
# UACC-62 melanoma = tested on: UACC-62 melanoma
# CCRF-CEM leukemia = tested on: CCRF-CEM leukemia
# SF-268 CNS = tested on: SF-268 CNS
# ACHN renal = tested on: ACHN renal
# NCI-H23 lung = tested on: NCI-H23 lung
# RPMI-8226 leukemia = tested on: RPMI-8226 leukemia
# MDA-N = tested on: MDA-N
# UACC-257 melanoma = tested on: UACC-257 melanoma
# OVCAR-3 ovarian = tested on: OVCAR-3 ovarian
# MDA-MB-435 = tested on: MDA-MB-435
# HL-60(TB) leukemia = tested on: HL-60(TB) leukemia
smiles,measurement,setting,value
COc1cc2cnc3c(c2cc1OC)Cc1cc2c(cc1-3)OCO2,GI50,SK-MEL-5 melanoma,< 10 nM
same,TGI,SK-MEL-5 melanoma,5390 nM
same,GI50,DU-145 prostate,33.8 nM
same,TGI,DU-145 prostate,> 54100 nM
same,GI50,SR leukemia,< 10 nM
same,TGI,SR leukemia,14.5 nM
same,GI50,SW-620 colon,< 10 nM
same,TGI,SW-620 colon,> 100000 nM
same,GI50,LOX IMVI melanoma,576 nM
same,TGI,LOX IMVI melanoma,> 100000 nM
same,GI50,SNB-19 CNS,48.6 nM
same,TGI,SNB-19 CNS,37700 nM
same,GI50,MALME-3M melanoma,< 10 nM
same,TGI,MALME-3M melanoma,74900 nM
same,GI50,HOP-62 NSCLC,< 26.8 nM
same,TGI,HOP-62 NSCLC,17400 nM
same,GI50,NCI-H460 lung,< 10 nM
same,TGI,NCI-H460 lung,34 nM
same,GI50,A498 renal,< 18.3 nM
same,TGI,A498 renal,17800 nM
same,GI50,SN12C renal,> 100000 nM
same,TGI,SN12C renal,> 100000 nM
same,GI50,OVCAR-5 ovarian,35500 nM
same,TGI,OVCAR-5 ovarian,77900 nM
same,GI50,RXF 393 renal,32.2 nM
same,TGI,RXF 393 renal,> 92500 nM
same,GI50,OVCAR-8 ovarian,52.7 nM
same,TGI,OVCAR-8 ovarian,> 100000 nM
same,GI50,SNB-75 CNS,10.9 nM
same,TGI,SNB-75 CNS,> 49300 nM
same,GI50,IGROV1 ovarian,14 nM
same,TGI,IGROV1 ovarian,> 62900 nM
same,GI50,SK-MEL-28 melanoma,1860 nM
same,TGI,SK-MEL-28 melanoma,> 100000 nM
same,GI50,HCT-15 colon,< 10 nM
same,TGI,HCT-15 colon,> 100000 nM
same,GI50,OVCAR-4 ovarian,13600 nM
same,TGI,OVCAR-4 ovarian,> 62800 nM
same,GI50,T-47D breast,1710 nM
same,TGI,T-47D breast,> 100000 nM
same,GI50,KM12 colon,< 10 nM
same,TGI,KM12 colon,> 100000 nM
same,GI50,EKVX NSCLC,27.9 nM
same,TGI,EKVX NSCLC,55900 nM
same,GI50,HCC-2998 colon,< 10 nM
same,TGI,HCC-2998 colon,56.2 nM
same,TGI,786-0 renal,> 51900 nM
same,GI50,K-562 leukemia,< 10 nM
same,TGI,K-562 leukemia,> 100000 nM
same,GI50,TK-10 renal,< 10 nM
same,TGI,TK-10 renal,2830 nM
same,GI50,NCI/ADR-RES ovarian,< 10 nM
same,TGI,NCI/ADR-RES ovarian,> 81500 nM
same,GI50,COLO 205 colon,< 10 nM
same,TGI,COLO 205 colon,> 100000 nM
same,GI50,HT29 colon,< 10 nM
same,TGI,HT29 colon,73400 nM
same,GI50,SF-295 CNS,< 10 nM
same,TGI,SF-295 CNS,> 37600 nM
same,GI50,BT-549 breast,391 nM
same,TGI,BT-549 breast,50200 nM
same,GI50,SK-OV-3 ovarian,20.3 nM
same,TGI,SK-OV-3 ovarian,26000 nM
same,GI50,HOP-92 NSCLC,> 93600 nM
same,TGI,HOP-92 NSCLC,> 100000 nM
same,GI50,M14 melanoma,< 11.3 nM
same,TGI,M14 melanoma,> 100000 nM
same,GI50,NCI-H226 lung,41100 nM
same,TGI,NCI-H226 lung,> 95800 nM
same,GI50,NCI-H522 lung,< 10 nM
same,TGI,HCT-116 colon,> 50300 nM
same,GI50,HS 578T breast,< 10 nM
same,TGI,HS 578T breast,> 100000 nM
same,GI50,UO-31 renal,< 19.3 nM
same,TGI,UO-31 renal,> 43300 nM
same,GI50,U251 CNS,< 10 nM
same,TGI,U251 CNS,517 nM
same,GI50,A549 NSCLC,< 15.3 nM
same,TGI,A549 NSCLC,> 54500 nM
same,GI50,MCF7 breast,33.3 nM
same,TGI,MCF7 breast,> 81800 nM
same,GI50,MDA-MB-231 breast,179 nM
same,TGI,MDA-MB-231 breast,> 100000 nM
same,GI50,CAKI-1 renal,< 10 nM
same,TGI,CAKI-1 renal,> 74700 nM
same,GI50,SF-539 CNS,< 13.2 nM
same,TGI,SF-539 CNS,31800 nM
same,GI50,MOLT-4 leukemia,< 10 nM
same,TGI,MOLT-4 leukemia,205 nM
same,GI50,PC-3 prostate,< 10 nM
same,GI50,UACC-62 melanoma,< 10 nM
same,TGI,UACC-62 melanoma,35100 nM
same,GI50,CCRF-CEM leukemia,< 10 nM
same,TGI,CCRF-CEM leukemia,34.4 nM
same,TGI,SF-268 CNS,31300 nM
same,GI50,ACHN renal,< 14.3 nM
same,TGI,ACHN renal,19400 nM
same,TGI,NCI-H23 lung,24600 nM
same,GI50,RPMI-8226 leukemia,< 10 nM
same,TGI,RPMI-8226 leukemia,85700 nM
same,GI50,MDA-N,> 100000 nM
same,TGI,MDA-N,> 100000 nM
C=C1C(C[C@@H]2O[C@H]3C[C@H]4O[C@@]5(C[C@@H]6O[C@]7(C[C@H](C)[C@@H]8O[C@@H]9CC(C(O)CO)O[C@@H]9C[C@@H]8O7)C[C@H](C)[C@@H]6O5)C[C@H]4O[C@H]3[C@H](C)[C@H]2O)O[C@@H](CC[C@@H]2O[C@@H](CC[C@@]34CC5O[C@H]6C(O[C@H]7CC[C@H](CC(=O)OC)O[C@@H]7[C@@H]6O3)[C@H]5O4)CC2=C)C[C@H]1C (some centres not stated),TGI,SK-MEL-5 melanoma,55.9 nM
same,TGI,UACC-257 melanoma,> 1000 nM
same,TGI,OVCAR-3 ovarian,> 1000 nM
same,TGI,SR leukemia,> 1000 nM
same,TGI,SW-620 colon,> 1000 nM
same,TGI,LOX IMVI melanoma,> 292 nM
same,TGI,SNB-19 CNS,> 1000 nM
same,TGI,HOP-62 NSCLC,> 1000 nM
same,TGI,SN12C renal,> 1000 nM
same,TGI,OVCAR-5 ovarian,> 1000 nM
same,TGI,RXF 393 renal,> 1000 nM
same,TGI,OVCAR-8 ovarian,12.5 nM
same,TGI,SNB-75 CNS,> 1000 nM
same,TGI,IGROV1 ovarian,579 nM
same,TGI,SK-MEL-28 melanoma,> 1000 nM
same,TGI,HCT-15 colon,20.9 nM
same,TGI,OVCAR-4 ovarian,> 1000 nM
same,TGI,T-47D breast,> 1000 nM
same,TGI,EKVX NSCLC,> 1000 nM
same,TGI,K-562 leukemia,> 1000 nM
same,TGI,TK-10 renal,> 1000 nM
same,TGI,NCI/ADR-RES ovarian,77.2 nM
same,TGI,COLO 205 colon,3.5 nM
same,TGI,BT-549 breast,3.16 nM
same,TGI,SK-OV-3 ovarian,> 1000 nM
same,TGI,HOP-92 NSCLC,> 1000 nM
same,TGI,M14 melanoma,> 1000 nM
same,TGI,NCI-H226 lung,24.8 nM
same,TGI,UO-31 renal,> 1000 nM
same,TGI,MDA-MB-435,0.183 nM
same,TGI,U251 CNS,> 1000 nM
same,TGI,A549 NSCLC,> 783 nM
same,TGI,MCF7 breast,> 1000 nM
same,TGI,CAKI-1 renal,> 1000 nM
same,TGI,HL-60(TB) leukemia,> 1000 nM
same,TGI,MOLT-4 leukemia,> 1000 nM
same,TGI,PC-3 prostate,> 1000 nM
same,TGI,UACC-62 melanoma,> 1000 nM
same,TGI,CCRF-CEM leukemia,> 1000 nM
same,TGI,SF-268 CNS,> 1000 nM
same,TGI,ACHN renal,> 1000 nM
same,TGI,MDA-N,0.124 nM
CC(C)(C)OC(=O)/C=C/C(=O)O/C=C/[N+](=O)[O-],TGI,SK-MEL-5 melanoma,> 100000 nM
same,TGI,UACC-257 melanoma,> 100000 nM
same,TGI,DU-145 prostate,> 100000 nM
same,TGI,OVCAR-3 ovarian,> 100000 nM
same,TGI,SR leukemia,> 100000 nM
same,TGI,SW-620 colon,> 100000 nM
same,TGI,LOX IMVI melanoma,> 100000 nM
same,TGI,HOP-62 NSCLC,> 100000 nM
same,TGI,NCI-H460 lung,> 100000 nM
same,TGI,A498 renal,> 100000 nM
same,TGI,SN12C renal,> 100000 nM
same,TGI,OVCAR-5 ovarian,> 100000 nM
same,TGI,RXF 393 renal,> 100000 nM
same,TGI,OVCAR-8 ovarian,> 100000 nM
same,TGI,SNB-75 CNS,> 100000 nM
same,TGI,IGROV1 ovarian,> 100000 nM
same,TGI,HCT-15 colon,> 100000 nM
same,TGI,KM12 colon,> 100000 nM
same,TGI,EKVX NSCLC,> 100000 nM
same,TGI,HCC-2998 colon,> 100000 nM
same,TGI,786-0 renal,> 100000 nM
same,TGI,K-562 leukemia,> 100000 nM
same,TGI,TK-10 renal,> 100000 nM
same,TGI,COLO 205 colon,> 100000 nM
same,TGI,HT29 colon,> 100000 nM
same,TGI,SF-295 CNS,> 100000 nM
same,TGI,SK-OV-3 ovarian,> 100000 nM
same,TGI,HOP-92 NSCLC,> 100000 nM
same,TGI,M14 melanoma,> 100000 nM
same,TGI,NCI-H226 lung,> 100000 nM
same,TGI,NCI-H522 lung,> 100000 nM
same,TGI,HCT-116 colon,> 100000 nM
same,TGI,HS 578T breast,> 100000 nM
same,TGI,UO-31 renal,> 100000 nM
same,TGI,MDA-MB-435,> 100000 nM
same,TGI,U251 CNS,> 100000 nM
same,TGI,A549 NSCLC,> 100000 nM
same,TGI,MCF7 breast,> 100000 nM
same,TGI,MDA-MB-231 breast,> 100000 nM
same,TGI,CAKI-1 renal,> 100000 nM
same,TGI,SF-539 CNS,> 100000 nM
same,TGI,UACC-62 melanoma,> 100000 nM
same,TGI,CCRF-CEM leukemia,> 100000 nM
same,TGI,SF-268 CNS,> 100000 nM
same,TGI,ACHN renal,> 100000 nM
same,TGI,NCI-H23 lung,> 100000 nM
same,TGI,RPMI-8226 leukemia,> 100000 nM
same,TGI,MDA-N,> 100000 nM
